In PubChem BioAssay AID488888 (Sanford-Burnham Center for Chemical Genomics, 2010):
The source made the active and inactive calls.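 The calls were made as follows: active = mean EC50, the dose giving half of full activation, below a set limit (actives reach about 84 µM in these data); inactive = the rest.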

Molecular target: Alkaline phosphatase, placental type (Homo sapiens) (UniProt P05187)
Assay: activation of placental alkaline phosphatase – biochemical, uHTS hits, luminescence, selectivity assay for human IAP activator project, dose response (AID 488888)
Conditions: purified PLAP, CDP-Star luminescence, 30 min

Sequence of Alkaline phosphatase, placental type (Homo sapiens) (P05187 whole entry, looked up): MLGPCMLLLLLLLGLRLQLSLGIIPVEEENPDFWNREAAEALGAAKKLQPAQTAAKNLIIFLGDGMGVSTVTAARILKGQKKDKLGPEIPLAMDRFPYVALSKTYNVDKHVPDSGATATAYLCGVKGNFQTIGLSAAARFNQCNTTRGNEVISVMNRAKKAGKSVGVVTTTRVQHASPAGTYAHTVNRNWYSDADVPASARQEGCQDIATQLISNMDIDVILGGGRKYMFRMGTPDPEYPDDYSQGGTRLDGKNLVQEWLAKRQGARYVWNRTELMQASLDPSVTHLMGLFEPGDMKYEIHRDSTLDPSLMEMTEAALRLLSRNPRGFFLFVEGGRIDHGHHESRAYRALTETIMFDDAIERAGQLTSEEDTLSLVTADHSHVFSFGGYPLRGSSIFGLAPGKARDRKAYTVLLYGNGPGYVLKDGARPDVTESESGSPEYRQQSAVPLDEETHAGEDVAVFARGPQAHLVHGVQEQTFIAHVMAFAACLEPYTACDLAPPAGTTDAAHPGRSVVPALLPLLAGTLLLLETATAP

Row | EC50 | SMILES
1 | 59.3 µM | CCC(C)(C)C1CCc2[nH]nc(C(=O)N/N=C(\C)c3ccco3)c2C1 (centres undefined)
2 | 18.7 µM | Cc1cc(C)cc(OCC(=O)NNC(=O)c2cc(C)[nH]n2)c1
3 | 15.2 µM | CC(C)(C)OC(=O)N1CCC(NC(=O)c2[nH]cnc2C(=O)Nc2ccon2)CC1
4 | 17.8 µM | CN(Cc1ccccc1)C(=O)c1[nH]cnc1C(=O)Nc1nccs1
5 | 78.1 µM | CC(C)n1cc(CN2CCC(C(=O)Nc3cccc(-c4cccc(Cl)c4)c3)CC2)cn1
6 | 14.7 µM | CCn1c(C)nc2cc(C(=O)NNC(=S)Nc3ccccc3)ccc21
7 | 18.7 µM | Cc1nc(Nc2nc3c(c(=O)[nH]2)CCC3)nc2ccccc12
8 | 19.8 µM | C[C@@H](NC(=O)c1[nH]cnc1C(=O)Nc1ccon1)c1ccccc1
9 | 15.3 µM | Cc1nc2c3ccccc3nc(NNC(=O)CCC(=O)NCCN3CCN(c4ccccc4)CC3)n2n1
10 | 12.3 µM | COc1ccccc1C1=NN(C2=NN=C(N)Cc3ncnn32)C(O)(C(F)(F)F)C1 (centres undefined)
11 | 13.6 µM | O=C(NC(=S)NNC(=O)c1ccccc1O)c1ccc(F)cc1
12 | 66.8 µM | O=C(N/N=C/c1c(F)cccc1Cl)c1cc(C2CC2)[nH]n1
13 | 35.2 µM | O=c1c2ccccc2nc(N/N=C/c2c(O)ccc3ccccc23)n1O
14 | 9.82 µM | CC(C)C(=O)NC(=S)Nc1ccccc1C(=O)Nc1ccccc1
15 | 16.7 µM | CCCOCC(O)CC(CC)C(=O)NNC(=S)Nc1ccccc1 (centres undefined)
16 | 13.9 µM | Cc1nc2c3ccccc3nc(NNC(=O)CCC(=O)NCCC(C)C)n2n1
17 | 20.7 µM | O=C(Cc1ccc(Cl)c(Cl)c1)NNC(=S)NCC1CCCO1 (centres undefined)
18 | > 100 µM (inactive) | O=C(O)c1ccccc1C(=O)Nc1cc(-c2ccccc2)[nH]n1
19 | 8.04 µM | Cc1ccc(-c2cc(C(=O)N/N=C/c3ccccc3O)n[nH]2)o1
20 | 11.2 µM | CCOc1ccc(/C=N/NC(=O)c2[nH]ncc2Br)c(O)c1
21 | 13.4 µM | CCc1ccc(/C=N/Nc2ncnc3nc[nH]c23)cc1
22 | 19.5 µM | COc1ccccc1N(C)S(=O)(=O)c1ccc(Cl)c(C(=O)NNC(=O)c2ccccc2O)c1
23 | 53.1 µM | Cc1cc(C(=O)NC2CC(C)(C)Cc3c2cnn3-c2ccccc2)n[nH]1 (centres undefined)
24 | 84 µM | CCOc1ccccc1CN1CCC(n2nccc2NC(=O)CCc2ccccc2)CC1
25 | 19.1 µM | CCOCCCNC(=O)CCC(=O)NNc1nc2ccccc2c2nc(-c3ccccc3)nn12

Row | EC50 | SMILES
26 | 73.7 µM | CCN(CC)c1ccc(/C=N/NC(=O)c2nnn(-c3nonc3N)c2C(C)C)c(O)c1
27 | 75.2 µM | Cc1ccccc1CN1CCC(n2nccc2NC(=O)CCCc2ccccc2)CC1
28 | 11 µM | O=C(N/N=C/c1c(O)ccc2ccccc12)c1[nH]ncc1Br
29 | 10.5 µM | OC(c1nc2ccc(F)cc2[nH]1)C(O)c1nc2ccc(F)cc2[nH]1 (centres undefined)
30 | 16.1 µM | CSCCC(NS(=O)(=O)c1ccc(C)cc1)C(=O)NNC(=O)c1csc(N2CCOCC2)n1 (centres undefined)
31 | 15.3 µM | Cc1ccc(NC(=O)NNC(=O)c2cc3ccccc3cc2O)cc1
32 | > 100 µM (inactive) | O=C(O)C1OC(Oc2c(-c3ccc(O)c(O)c3)oc3cc(O)cc(O)c3c2=O)C(O)C(O)C1O (centres undefined)
33 | 25.3 µM | O=C(CCN1C(=O)/C(=C/c2ccccc2Cl)SC1=S)NNC(=O)c1ccccc1O
34 | 17 µM | Cc1cc(OCC(=O)Nc2ncn[nH]2)ccc1Cl
35 | 88.3 µM | COc1ccccc1CNC(=O)CN(c1ccc(C)cc1)S(=O)(=O)c1c(C)noc1C
36 | 41.1 µM | CC(NC(=S)NC1CCC(C(C)(C)C)CC1)c1ccccc1 (centres undefined)
37 | > 100 µM (inactive) | O=c1oc(-c2ccc(O)c(O)c2)cc2cc(O)cc(O)c12
38 | 15.6 µM | Cc1cccc(OCC(=O)NNC(=O)c2ccc3nc[nH]c3c2)c1
39 | 0.718 µM | C=CCN1C(=O)C2(NNc3ccccc3O2)c2ccccc21 (centres undefined)
40 | 24.1 µM | CC(C)Oc1ccc(C(=O)Nc2ncn[nH]2)cc1
41 | 14.7 µM | CC(NS(=O)(=O)c1ccc(Br)cc1)C(=O)Nc1nc2ccccc2[nH]1 (centres undefined)
42 | 13.5 µM | CN(C)S(=O)(=O)c1cccc(NC(=S)NNC(=O)c2cc3ccccc3cc2O)c1
43 | 14.4 µM | COc1ccc(C2=NN(C3=NN=C(N)Cc4ncnn43)C(O)(C(F)(F)F)C2)cc1 (centres undefined)
44 | 13.2 µM | Cc1nc(S/C(=C/c2ccc(-c3ccc(Cl)cc3)o2)C(=O)O)n[nH]1
45 | 9.19 µM | Cc1cccc(-n2ncc3c(NNC(=O)c4ccco4)ncnc32)c1
46 | 12 µM | O=C(CCCCC(=O)NNC(=O)COc1ccccc1)NNC(=O)COc1ccccc1
47 | 23.1 µM | COc1ccc(OC)c(NC(=O)c2cc(-c3cc(C)ccc3O)n[nH]2)c1
48 | 19.1 µM | COc1ccc(O)c(/C=N/NC(=S)NCCc2ccccc2)c1
49 | 70 µM | CCOc1cc(/C=N/NC(=O)C(=O)N/N=C/c2ccc(O)c(OCC)c2)ccc1O
50 | 0.55 µM | O=C1Nc2ccc(Br)cc2C12NNc1ccccc1O2 (centres undefined)

Row | EC50 | SMILES
51 | 25 µM | CCOC(=O)c1cnc(-n2nc(C)cc2C)nc1NNc1nc(C)cc(C)n1
52 | 56 µM | COc1ccccc1CCNC(=O)C1CCN(c2nnc(C)c3c(C)n(-c4ccc(C)cc4)nc23)CC1
53 | 18.7 µM | O=C(NNC(=S)NC(=O)c1ccccc1)c1cccnc1
54 | 12.5 µM | CC(=O)Nc1cccc(C(=O)NNC(=O)c2n[nH]c(=O)c3ccccc23)c1
55 | 78.9 µM | COc1cc(NC(=O)NCC2CCN(Cc3ccccc3C)CC2)cc(OC)c1OC
56 | 10.5 µM | O=C(NNC(=S)NC(=O)c1ccccc1[N+](=O)[O-])c1ccccc1O
57 | 71.6 µM | COc1ccc(CN2CCC(n3nccc3NC(=O)CCCc3ccccc3)CC2)cc1C
58 | 13.5 µM | Cc1nc2c3ccccc3nc(NNC(=O)CCC(=O)N3CCCC(C)C3)n2n1 (centres undefined)
59 | 60.8 µM | Cc1cccc(CC(Cc2nc3ccccc3[nH]2)c2nc3ccccc3[nH]2)c1 (centres undefined)
60 | 60 µM | CCC(NC(=S)NC1CCCCC1)c1ccc(C(C)C)cc1 (centres undefined)
61 | 10.9 µM | CCn1c(C)nc2cc(C(=O)N/N=C/c3cccc(O)c3O)ccc21
62 | 0.663 µM | C=CCn1c(O)c(N=Nc2ccccc2O)c2ccccc21
63 | 28.4 µM | CN(CC(=O)Nc1ccccc1F)CC(=O)Nc1ccc(F)c(F)c1F
64 | 7.82 µM | COc1cccc(/C=N\NC(=O)C2=NNC(=O)C2C)c1O (centres undefined)
65 | 20.4 µM | CCOc1ccc(CC(=O)NNC(=S)NC2CCCCC2)cc1OCC
66 | 15.5 µM | O=C(Nc1ccon1)c1nc[nH]c1C(=O)NCc1ccccc1
67 | 30.8 µM | Cc1[nH]n(-c2nc(-c3ccccc3)cc(=O)[nH]2)c(=O)c1CCO
68 | 12.5 µM | CSCCC(NS(=O)(=O)c1ccccc1F)C(=O)NNC(=O)c1csc(N2CCOCC2)n1 (centres undefined)
69 | 18.6 µM | Cc1nn(C)c(C(=O)NNC(=S)NCc2ccccc2)c1Cl
70 | 81.4 µM | COc1cc(CN2CCC(n3nccc3NC(=O)CCCc3ccccc3)CC2)ccc1F
71 | 61.6 µM | CC(C)CC(=O)NC(=S)NNC(=O)c1ccc(NC(=O)C2CCCCC2)cc1
72 | 75.5 µM | Cc1ccc(O)c(/C=N/NC(=O)c2[nH]ncc2Br)c1
73 | 13.2 µM | CC1C(=O)NN=C1C(=O)N/N=C\c1ccc(O)cc1O (centres undefined)
74 | 42.3 µM | Cc1cccc(NS(=O)(=O)c2cccc(C(=O)NNC(=O)c3ccccc3O)c2)c1
75 | 53.7 µM | CCn1nc(C)c(CN2CCC(C(=O)Nc3cccc(-c4cccc(F)c4)c3)CC2)c1C

Row | EC50 | SMILES
76 | 13.7 µM | O=C(NNC(=S)NCc1ccco1)c1ccccc1Br
77 | 14.5 µM | O=C(NN1C(=O)CSC1=S)C(=O)NN1C(=O)CSC1=S
78 | 82.7 µM | Cc1cc(C)cc(CC(Cc2nc3ccccc3[nH]2)c2nc3ccccc3[nH]2)c1 (centres undefined)
79 | 21.2 µM | CC(C)Oc1ccc(CCC(=O)NNC(=S)NCc2ccccc2)cc1
80 | 25.5 µM | Cc1cc(Br)ccc1SCC(=O)OC/C(O)=C(\C#N)c1nc2ccccc2[nH]1
81 | 9.75 µM | O=Nc1[nH]c(=O)c(/C=C(\O)c2ccccc2)nc1NO
82 | 12.7 µM | O=C(/C=C/c1cccs1)NC(=S)NNC(=O)c1ccccc1O
83 | 5.73 µM | O=C(N/N=C/c1ccc(O)cc1O)C(=O)N/N=C/c1ccc(O)cc1O
84 | 16.7 µM | Cc1ccc(S(=O)(=O)NCCC(=O)NNC(=O)COc2ccc(Br)cc2)cc1C
85 | 16.4 µM | Cc1c(C(=O)N/N=C/c2c(O)ccc3ccccc23)nnn1-c1nonc1N
86 | 69 µM | COc1ccccc1CN1CCC(n2nccc2NC(=O)CCCc2ccccc2)CC1
87 | 15.3 µM | CC1=NN(c2nc3ccccc3[nH]2)C(=O)/C1=C/N(C)C
88 | 13.6 µM | Cc1cc(=O)[nH]c(-n2[nH]c3c(c2=O)CCCC3)n1
89 | 23.2 µM | CCOC(=O)c1c(C)[nH]c(C(=O)N/N=C/c2cc([N+](=O)[O-])ccc2O)c1C
90 | 14.3 µM | Cc1ccsc1C(=O)NNC(=S)NC1CCCCC1
91 | 1.91 µM | CCOc1cccc(-c2nc(C(N)=O)c3[nH]c(=O)n(-c4cccc(Cl)c4)c3n2)c1O
92 | 27.1 µM | c1ccc(-c2cccc(-c3ccccn3)n2)nc1
93 | 62.2 µM | Cn1c(/C(C#N)=C(\O)c2ccc(Br)s2)nc2ccccc21
94 | 35.9 µM | CC(C)(C)NC(=O)C(=O)NNC(=O)COc1ccccc1
95 | 64.2 µM | COc1cc(NC(=O)NCC2CCN(Cc3ccccc3Cl)CC2)cc(OC)c1OC
96 | 15.2 µM | O=c1cc(-c2ccccc2)[nH]n1-c1nc2ccccc2[nH]1
97 | 16.4 µM | O=C(NNC(=S)NC1CCCCC1)c1ccccc1Br
98 | 13.9 µM | COc1cc(OC)cc(C(=O)NNC(=O)c2nn(C)c(=O)c3ccccc23)c1
99 | 11.5 µM | NC(CO)C(=O)NNCc1ccc(O)c(O)c1O (centres undefined)
